In patent publication US7709443B2, “Cyclic peptide antitumor agents” (Northwestern University, priority 2003, dated 2010):
Values after ≈ are worked out from the molar mass of the structure shown. Like-named read-outs stand apart in the source and are kept apart here. Square brackets hold non-standard residues; d marks the D form. Peptide text beside a SMILES is read from it. NMePhe(4-Br) = CN[C@@H](Cc1ccc(Br)cc1)C(=O)O; Phe(4-Br) = N[C@@H](Cc1ccc(Br)cc1)C(=O)O; Hica(2S) = CC(C)C[C@H](O)C(=O)O; NMeL = CN[C@@H](CC(C)C)C(=O)O

Key:
[1] = test system: AsPC-1 cells; assay: Cell proliferation assay (Guava ViaCount cell number), AsPC-1; format: cell-based, human; settings: AsPC-1, 10 μM, 72 hours, vs vehicle (DMSO)
Method: (§1) Given the results of the preceding example, several compounds of this invention were tested against human pancreatic cancer cell lines. Two cancer cell lines were selected: S2-013 (well-differentiated) and AsPC-1 (poorly differentiated). These cell lines were purchased from American Type Culture Collection (Manassas, Va.). Both cell lines were grown in DMEM and plated as monolayers in the medium supplemented with 10% fetal bovine serum in a humidified atmosphere of […] and 5% CO2 at 37° C. The cells were regularly seeded into 75 cm^2 flasks with media changes every second or third day. For experiments, cells were grown to 70% confluence, digested with trypsin-EDTA, and plated in either 6-, 24-, or 48-well plates.
(§2) Cell Proliferation Assay. Cells were regularly seeded into three 6-well plates and incubated at 37° C. for 24 hours. Cells were then cultured in serum-free medium for another 24 hours and treated in fresh serum-free medium with or without 10 μM of cyclic peptide 1k for 24, 48, and 72 hours. At the end of each time period, the cells were trypsinized to produce a single cell suspension, and the cell number in each well was determined using Guava Technologies=ViaCount Assay (Guava Technologies Inc, Hayward, Calif.).
(§3) Statistical Analysis. Data were analyzed by ANOVA with Dunnett's or Bonferoni's corrections for multiple comparisons, as appropriate. This analysis was performed with the Prism software package (GraphPad, San Diego, Calif.). Data were expressed as mean±SEM.

[2] = test system: S2-013 cell line; assay: Cell proliferation assay (Guava ViaCount cell number), S2-013; format: cell-based, human; settings: S2-013, 10 μM, 72 hours, vs vehicle (DMSO)
Method: as §1, §2, §3

[3] = test system: PC-3 cells; assay: Annexin V binding, induction of apoptosis; format: cell-based, human; settings: after 72 hours
From the text: The ability of the compounds in this invention to induce apoptosis was also studied, based on a methodology previously reported in the literature. (See, Soff et al. Cancer Res., 63:4275-4289, 2003.) As understood by those skilled in the art, the ability of Annexin V to bind two cells is related to altered phospholipids on a cell surface, induced by apoptosis. As such, increased Annexin V binding indicates induction of apoptosis.

[4] = test system: Caspase-3 activity in PC-3 cells; assay: Caspase-3 activity, fluorometric assay; format: cell-based, human; settings: relative to DMSO and staurosporin controls
Method: Caspase-3 is a mediator of apoptosis, and induction of Caspase-3 activity indicates induction of apoptosis. Activity of Caspase-3 was measured by a fluorometric assay, as described in the literature, referenced above.

[5] = test system: PC-3 (Prostate) human cancer cell line; settings: three days
Method: (§5) Cells were plated at 5,000 cells per well in 24-well plates, treated for three days, then counted. Cell number was normalized to the number of cells in untreated control (DMSO) cells, also after three days.

[6] = test system: MDA-MB231 (Breast) human cancer cell line; settings: three days
Method: as §5

[7] = test system: WM115 (Melanoma) human cancer cell line; settings: three days
Method: as §5

[8] = test system: AsPC-1 human pancreatic cancer cells; assay: DNA synthesis by [methyl-3H] thymidine incorporation, AsPC-1; format: cell-based; settings: AsPC-1, 24 hours, FIG. 6
Method: as §1
DNA Synthesis by [methyl-^3H] Thymidine Incorporation. Cells were plated in 24-well plates at a concentration of 50,000 cells/well. […] Radioactivity, indicating incorporation of ^3H-methyl thymidine into DNA, was measured by adding scintillation cocktail and counting on a scintillation counter (LKB RackBeta; Wallac, Turku, Finland).
Statistical Analysis. Data were analyzed by ANOVA with Dunnett's or Bonferoni's corrections for multiple comparisons, as appropriate. […] Data were expressed as mean±SEM.

[9] = test system: AsPC-1 cells; assay: Morphological changes using light microscopy, AsPC-1; format: cell-based, human; settings: AsPC-1, 24 hours, 0.1-100 μM tested
Method: as §1
Morphological Changes Using Light Microscopy. AsPC-1 and S2-013 cells plated in 24-well plates were treated with varying concentrations (0.1-100 μM) of cyclic peptide 1k for 24 hours. Cells were then viewed using light microscopy, and digital images were taken with a Kodak DC120 zoom digital camera (Eastman Kodak Co., Rochester, N.Y.).

[10] = test system: AsPC-1 human pancreatic cancer cells; assay: Cell cycle analysis by flow cytometry, AsPC-1; format: cell-based; settings: AsPC-1, 10 μM, 24 hours
Method: (§4) Cell Cycle Analysis by Flow Cytometry. AsPC-1 and S2013 human pancreatic cancer cells were cultured in T75 flasks with media containing 10% FBS. After reaching 50-60% confluence, the cells were serum-starved for 24 hours, and then treated with 10 μM of cyclic peptide 1k for 24 hours. At the end of the treatment, the cells were harvested with trypsin-EDTA solution to produce single cell suspension. The cells were then centrifuged at 1000×g for 10 minutes. The pellets were washed twice with ice-cold phosphate buffer saline (PBS), and re-suspended in 0.5 ml PBS. 5 ml of ice-cold 70% ethanol was added to each cell suspension and incubated for 12 hours at 4° C. The cells fixed in ethanol were centrifuged at 1000×g for 10 minutes and the subsequent pellets were washed with ice-cold PBS twice. The final cell pellets were reconstituted in the 1 ml Telford reagent and horizontally shaken for 1 hour in the dark at room temperature. The red fluorescence of the single events was recorded using a laser beam at 488 nm excitation 8 and 610 nm as emission 8 to measure the DNA index. Experiments were repeated three times.

[11] = test system: S2013 human pancreatic cancer cells; assay: Cell cycle analysis by flow cytometry, S2013; format: cell-based; settings: S2013, 10 μM, 24 hours
Method: as §4

[12] = test system: HCT-116 (human colon carcinoma); assay: cells; settings: HCT-116 bioassay, Table 1
From the text: The HCT-116 human colon adenocarcinoma screen is a tissue culture first line assay to detect inherent cytotoxicity against malignant cancer cells. This strain is considered to be an “indicator strain” by many for the selection of inhibitors that target solid tumors. The assay is a calorimetric endpoint assay which can be produced in 96-well format trays. Data are acquired by plate reader and dose response curves are produced by computer analysis. […] This assay is run routinely as described below and would be understood in the art.
1. Media (1000 mL McCoy's 5A Medium, 114 mL Fetal Bovine Serum, 25 mL Hepes buffer solution (IM), 12.5 mL Penicillin-Streptomycin solution)
2. Cell line (HCT-116, human colon cancer cell line)
3. Indicator (MTS and PMS in DPBS)
5. Standard anticancer drug (etoposide (VP-16); stock is 4 mg/mL in DMSO
6. DPBS (without CaCl2 and MgCl2)
1. Remove medium from the cells and rinse with 10 mL sterile DPBS.
3. Allow to stand in hood for 1 minute.
4. Remove trypsin with sterile pipette.
5. Allow flask to stand in hood for 2-5 minutes.
6. Add 10 mL of media to flask and pipette up and down to gently break up cell clumps.
7. Count the number of cells using a hemacytometer.
8. Determine # of plates needed, and total volume of cell suspension (16 or 18 mL per plate).
9. Dilute cells to a final concentration of 2.5×10^4 cells/mL in a sterile flask.
10. Pour cell suspension into a sterile trough.
For Serial Dilution Plates
1. Add 175 μL to each well in the first row of a 96 well plate.
2. Add 150 μL to the rest of the wells in A1-A10 & A12.
3. In row 11 add 150 μL cell suspension to the first 6 wells and only media to the last two.
For Single Concentration Plates
1. Add 150 μL of sterile media to G11 & H11.
2. Add 150 μL of cell suspension to all other wells.
3. Add 25 μL more to well H1.
Incubate plates overnight at 37° C. & 5% CO2
1. Add 25 μL of test compounds @ 10 mg/mL to A1-A10, 25 μL of DMSO to A11 & 25 μL of etoposide (4 mg/mL) to A12.
2. Using a twelve channel pipette, mix well then remove 50 μL from the first row and transfer to the next row, repeat down the plate until row F, then remove tip # 11 and continue down plate discarding the last 50 μL.
3. Incubate plates for 72 h.
1. Add 20 μL of MTS/PMS solution to each well.
3. Read plates @490 nm on plate reader.

[13] = test system: National Cancer Institute's 60 cell-line panel; settings: mean over panel; cited from earlier work
[14] = test system: topoisomerase I; settings: mechanism study in molluscum contagiosum virus; cited from earlier work
[15] = test system: HCT-116 (human colon carcinoma); settings: as found for the natural product; cited from earlier work

| SMILES | change in number of cells [1] | change in number of cells [2] | Fold Induction Over DMSO control ([5]; PC-3, 1 μM) | Fold Induction Over DMSO control ([6]; MDA-MB231, 1 μM) | Fold Induction Over DMSO control ([7]; WM115, 1 μM) | Fold Induction Over DMSO control ([5]; PC-3, 10 μM) | Fold Induction Over DMSO control ([6]; MDA-MB231, 10 μM) | Fold Induction Over DMSO control ([7]; WM115, 10 μM) | other results |
| --- | --- | --- | --- | --- | --- | --- | --- | --- | --- |
| CC(C)C[C@@H]1NC(=O)[C@H](Cc2ccc(Br)cc2)NC(=O)[C@H](CC(C)C)N(C)C(=O)[C@H](C(C)C)NC(=O)[C@H](CC(C)C)NC1=O [Compound 1i] (cyclo([Phe(4-Br)]LLV[NMeL])) | significant (p<0.05) decrease | significant (p<0.05) decrease | 0.85 | 0.96 | 1.44 |  |  |  | induction of apoptosis (Annexin V binding) [3]: induction of apoptosis was observed; Caspase-3 activity [4]: induced |
| CC(C)C[C@@H]1NC(=O)[C@H](CC(C)C)NC(=O)[C@H](Cc2ccc(Br)cc2)N(C)C(=O)[C@H](CC(C)C)NC(=O)[C@H](C(C)C)NC1=O [Compound 1k] (cyclo([NMePhe(4-Br)]LLVL)) | significant (p<0.05) decrease | significant (p<0.05) decrease | 0.95 | 3.17 | 1.05 | 0.66 | 0.41 | 0.13 | concentration-dependent effect on thymidine incorporation [8]: concentration-dependent inhibition; compound concentration giving obvious morphological changes [9]: ≥ 10 μM; S phase fraction [10]: marked decrease; cell cycle effect [10]: G0/G1 phase cell cycle arrest; subG1 fraction of apoptotic cells [10]: increase; S phase fraction [11]: marked decrease; cell cycle effect [11]: G0/G1 phase cell cycle arrest; subG1 fraction of apoptotic cells [11]: increase |
| CC(C)C[C@@H]1NC(=O)[C@H](C(C)C)NC(=O)[C@H](CC(C)C)OC(=O)[C@H](CC(C)C)NC(=O)[C@H](Cc2ccccc2)NC1=O [Sansalvamide A, reference compound] (cyclo(FL[Hica(2S)]VL)) |  |  | 0.95 | 0.90 | 0.98 | 0.22 | 0.09 | 0.02 | IC50 [12]: 9.8 µg/mL (≈ 16.7 µM); mean IC50 against NCI 60 cell-line panel [13]: 27.4 µg/mL; inhibition of topoisomerase I [14]: inhibitor of topoisomerase I; in vitro value toward HCT-116 colon carcinoma [15]: 9.8 µg/mL |
